Measured values published in patent publication US6479531B1, “Gastrin and cholecystokinin receptor ligands” (James Black Foundation Limited, priority 1998, dated 2002).

Target: T1, gastrin receptor (Rattus norvegicus, UniProt P30553)
T1 construct: The stomach was excised and flushed with ca. 1 ml of unbuffered physiological saline solution; from tissue; host or cells: isolated whole stomach of immature rats (ca. 21 days old)
T1 sequence (P30553 1-452): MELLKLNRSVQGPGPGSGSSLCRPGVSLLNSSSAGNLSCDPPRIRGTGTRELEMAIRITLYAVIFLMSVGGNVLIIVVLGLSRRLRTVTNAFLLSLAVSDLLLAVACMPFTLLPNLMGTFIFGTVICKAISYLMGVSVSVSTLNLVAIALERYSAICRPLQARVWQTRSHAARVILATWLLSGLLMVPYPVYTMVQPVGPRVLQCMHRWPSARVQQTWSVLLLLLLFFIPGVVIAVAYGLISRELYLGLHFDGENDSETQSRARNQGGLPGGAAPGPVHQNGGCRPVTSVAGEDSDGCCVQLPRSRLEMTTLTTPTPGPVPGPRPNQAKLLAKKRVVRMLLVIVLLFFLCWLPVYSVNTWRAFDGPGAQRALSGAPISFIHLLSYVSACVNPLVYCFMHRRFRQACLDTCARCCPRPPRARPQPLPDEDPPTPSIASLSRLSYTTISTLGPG
Experiment: gastrin antagonist activity in immature rat stomach assay (pentagastrin dose-response, acid secretion)
Settings: isolated immature rat stomach, cumulative pentagastrin dose-response curves; for Kb: read-out: Gastrin pKb (converted)
Experimental: The compounds of the examples were also tested for gastrin antagonist activity in an immature rat stomach assay. The procedure was as follows:
The oesophagus of immature rats (33-50 g, ca. 21 days old) was ligated at the level of the cardiac sphincter and the duodenal sphincter was cannulated. The stomach was excised and flushed with ca. 1 ml of unbuffered physiological saline solution. The fundus was punctured and cannulated. A further 4-5 ml of unbuffered solution was flushed through the stomach to ensure the preparation was not leaking. The stomach was lowered into a jacketed organ bath containing 40 ml of buffered solution containing 3×10^−8 M 5-methylfurmethide, maintained at 37° and gassed vigorously with 95% O2/5% CO2. The stomach was continuously perfused at a rate of 1 ml min^−1 with unbuffered solution gassed with 100% O2 with the perfusate passing over an internally referenced pH-electrode fixed 12 cm above the stomach.
After 120 min of stabilisation the drugs were added directly to the serosal solution in the organ bath and after a further 60 min cumulative pentagastrin dose-response curves were started. Changes in acid secretion were monitored and the curves analysed according to Black et al., Br. J. Pharmacol., 1985, 86, 581.

Compound	Kb [µM]	Gastrin pKb
Cc1ccc(NC(=O)c2nc(C34CCC(CC3)CC4)[nH]c2COC23CC4CC(CC(C4)C2)C3)cc1C(=O)O [Example 300, 5-{[5-(Adamantan-1-yloxymethyl)-2-bicyclo[2.2.2]oct-1-yl-1H-imidazole-4-carbonyl]-amino}-2-methyl-benzoic Acid]	0.00302	
O=C(O)CNS(=O)(=O)c1cccc(NC(=O)c2nc(C3CCCCC3)[nH]c2CCC23CC4CC(CC(C4)C2)C3)c1 [Example 262, (3-{[5-(2-Adamantan-1-yl-ethyl)-2-cyclohexyl-1H-imidazole-4-carbonyl]-amino}-benzenesulfonylamino)-acetic Acid]	0.224	
O=C(O)c1cccc(NC(=O)c2c(COC34CC5CC(CC(C5)C3)C4)nc(-c3c(Cl)cccc3Cl)n2O)c1 [Example 313, 3-{[5-(Adamantan-1-yloxymethyl)-2-(2,6-dichloro-phenyl)-3-hydroxy-3H-imidazole-4-carbonyl]-amino}-benzoic Acid]	0.0186	
Cn1c(C2CCCCC2)nc(C(=O)Nc2cccc(C(=O)O)c2)c1CCC12CC3CC(CC(C3)C1)C2 [Example 214, 3-{[5-(2-Adamantan-1-yl-ethyl)-2-cyclohexyl-1-methyl-1H-imidazole-4-carbonyl]-amino}-benzoic Acid]	0.0102	
Cc1ccc(NC(=O)c2nc([C@H]3CC4C=C[C@@H]3C4)[nH]c2COC23CC4CC(CC(C4)C2)C3)cc1C(=O)O [Example 289, endo-5-{[5-(Adamantan-1-yloxymethyl)-2-((1S,2S)-bicyclo[2.2.1]hept-5-en-2-yl)-1H-imidazole-4-carbonyl]-amino}-2-methyl-benzoic Acid]		8.74
O=C(O)c1cccc(NC(=O)c2nc(C3CCC=CCC3)[nH]c2COC23CC4CC(CC(C4)C2)C3)c1 [Example 230, 3-{[5-(Adamantan-1-yloxymethyl)-2-cyclohept-4-enyl-1H-imidazole-4-carbonyl]-amino}-benzoic Acid]	0.00617	
Cc1ccc(NC(=O)c2nc([C@@H]3CC4C=C[C@H]3C4)[nH]c2COC23CC4CC(CC(C4)C2)C3)cc1C(=O)O [Example 290, endo-5-{[5-(Adamantan-1-yloxymethyl)-2-((1R,2R)-bicyclo[2.2.1]hept-5-en-2-yl)-1H-imidazole-4-carbonyl]-amino}-2-methyl-benzoic Acid]		8.55
Cc1cc(C)c(-c2nc(C(=O)Nc3ccc(F)c(C(=O)O)c3)c(CCC34CC5CC(CC(C5)C3)C4)[nH]2)c(C)c1 [Example 156, 5-{[5-(2-Adamantan-1-yl-ethyl)-2-(2,4,6-trimethyl-phenyl)-1H-imidazole-4-carbonyl]-amino}-2-fluoro-benzoic Acid]	0.0631	
O=C(O)c1cccc(NC(=O)c2nc(C3C4CCC3CC4)[nH]c2COC23CC4CC(CC(C4)C2)C3)c1 (stereo not drawn) [Example 232, 3-{[5-(Adamantan-1-yloxymethyl)-2-bicyclo[2.2.1]hept-7-yl-1H-imidazole-4-carbonyl]-amino}-benzoic Acid]	0.00138	
O=C(O)c1cccc(NC(=O)c2nc(C3C4C=CC3C=C4)[nH]c2COC23CC4CC(CC(C4)C2)C3)c1 (stereo not drawn) [Example 288, 3-{[5-(Adamantan-1-yloxymethyl)-2-bicyclo[2.2.1]hepta-2,5-dien-7-yl-1H-imidazole-4-carbonyl]-amino}-benzoic Acid]	0.0132	
COCC1(c2nc(C(=O)Nc3cccc(C(=O)O)c3)c(CCC34CC5CC(CC(C5)C3)C4)[nH]2)CCCCC1 [Example 203, 3-{[5-(2-Adamantan-1-yl-ethyl)-2-(1-methoxymethyl-cyclohexyl)-1H-imidazole-4-carbonyl]-amino}-benzoic Acid]	0.0117	
Cc1c(NC(=O)c2nc(C34CCC(CC3)CC4)[nH]c2COC23CC4CC(CC(C4)C2)C3)cccc1C(=O)O [Example 222, 3-{[5-(Adamantan-1-yloxymethyl)-2-bicyclo[2.2.2]oct-1-yl-1H-imidazole-4-carbonyl]-amino}-2-methyl-benzoic Acid]	0.0204	
